These results are taken from US3966747A, “9-Hydroxy-6,7-benzomorphans” (Bristol-Myers Company, priority 1974, dated 1976).

Experiment [1] is described as follows: In vivo testing for agonist and/or antagonist properties (overall statement). Also noted: species or system mice and rats. Particulars: in words. The protocol:
(§1) In vivo testing was conducted on the compounds designated herein as dl-XVIc, l-XVIc tartrate, d-XVIc tartrate, dl-XVIe, dl-XVId and dl-XVIb to determine their agonist and/or antagonist properties. The figures reported are the number of milligrams/ kilogram of body weight of compound that produced an agonist or antagonist effect in 50% of the mice and rats so tested (ED50).

Experiment [2] has as its system Straub Tail induced by oxymorphone. The experiment is described as follows: Antagonist activity: antagonism of Straub Tail induced by oxymorphone. Type of experiment: in vivo, mice. Particulars: oxymorphone 2 mg./kg. sc., as free base; for ED50: Mus musculus. As for the experimental part: (§2) . The figures reported are the number of milligrams/ kilogram of body weight of compound that produced an agonist or antagonist effect in 50% of the mice and rats so tested (ED50).
^2 Antagonism of Straub Tail induced by oxymorphone (2 mg./kg. sc.) i
(§3) ^6 All values are reported in terms of the free base even though
(§4) administered as an acid addition salt.

Experiment [3] has as its system phenylquinone induced writhing. The experiment is described as follows: Agonist activity: mouse phenylquinone writhing. Format: in vivo. Particulars: for ED50: Mus musculus; for subcutaneous analgesic activity: in words. As for the experimental part:
as §1
^1 A 50 percent reduction in number of phenylquinone induced writhing
(Siegmund, E. A. et al., Proc. Soc. Biol. & Med. 95, 729; 1957).
as §3, §4
(In writhing tests, fewer writhes than in controls are read as antinociception.)

Experiment [4] concerns analgesic effect induced by morphine. The experiment is described as follows: animal or person. Format: in vivo, Rat. The note with it: for ED50: Rattus norvegicus.
From the text: as §2
mg./kg. sc.) as measured by the rat tail flick procedure (Harris, L. S.
and Pierson, A. K., J. Pharmacol. & Expt. Therap., 143, 141; 1964).
as §3, §4

Experiment [5] deals with righting reflex loss induced by oxymorphone. The experiment is described as follows: animal or person. Particulars: for ED50: Rattus norvegicus. Format: in vivo, rats.
[6] abbreviates: PO, read-out: ED50, Antagonist Activity, Oxymorphone Straub Tail, PO.
[7] abbreviates: SC, read-out: ED50, Antagonist Activity, Oxymorphone Straub Tail, SC.
[8] abbreviates: SC, 50 percent reduction in number of writhings, as free base, read-out: ED50, Agonist Activity, Mouse Phenylquinone Writhing, SC.
Where [9] appears, read: SC, morphine 15 mg./kg. sc., as free base, read-out: ED50, Antagonist Activity, Morphine Antagonism Rat Tail Flick, SC.
The mark [10] stands for this setting: SC, oxymorphone 1.5 mg./kg. sc., as free base, read-out: ED50, Antagonist Activity, Oxymorphone Narcosis, SC.
The mark [11] stands for this setting: PO, morphine 15 mg./kg. sc., as free base, read-out: ED50, Antagonist Activity, Morphine Antagonism Rat Tail Flick, PO.
Where [12] appears, read: PO, oxymorphone 1.5 mg./kg. sc., as free base, read-out: ED50, Antagonist Activity, Oxymorphone Narcosis, PO.
The mark [13] stands for this setting: PO, 50 percent reduction in number of writhings, as free base, read-out: ED50, Agonist Activity, Mouse Phenylquinone Writhing, PO.
The mark [14] stands for this setting: SC, 50 percent reduction in number of writhings, as free base.

Like-named read-outs stand apart in the source and are kept apart here.

Usually ED50 stands for the midpoint of the dose-response relation. As for `C=CC[C@]12CCN(CC3CC3)[C@H](Cc3ccc(O)cc31)[C@@]2(C)O` (relative stereo) [dl-XVIb, 2',9β-Dihydroxy-2-cyclopropylmethyl-5-allyl-9α-methyl-6,7-benzomorphan], the parenteral antagonist activity result in experiment [1] is given as “relatively potent parenteral antagonists”. In addition, the ED50 in experiment [2] (setting [6]) is 16 mg/kg; in experiment [2] (setting [7]), 0.12 mg/kg; in experiment [3] (setting [8]) it was more than 40 mg/kg; in experiment [4] (setting [9]), 0.018 mg/kg. Further, the subcutaneous analgesic activity result in experiment [3] is recorded as “weak subcutaneous analgesic activity”.
As to `C=CC[C@]12CCN(CC3CCC3)[C@H](Cc3ccc(O)cc31)[C@@]2(C)O` (relative stereo) [dl-XVIc, 2',9β-Dihydroxy-2-cyclobutylmethyl-5-allyl-9α-methyl-6,7-benzomorphan], the median effective dose (ED50) worked out at 0.3 mg/kg in experiment [5] (setting [10]), 0.72 mg/kg in experiment [2] (setting [7]), 0.23 mg/kg in experiment [3] (setting [8]) and 0.42 mg/kg in experiment [4] (setting [9]). Also, the “agonist and antagonist activity upon parenteral administration” value in experiment [1] is “potent agonist and antagonist activity”.
Take `C#CCN1CC[C@@]2(CC=C)c3cc(O)ccc3C[C@@H]1[C@@]2(C)O` (relative stereo) [dl-XVId, 2',9β-Dihydroxy-2-propargyl-5-allyl-9α-methyl-6,7-benzomorphan]: in experiment [1], the parenteral antagonist activity result is listed as “relatively potent parenteral antagonists”. For the same compound, the results for the 50% effective dose (ED50) in experiment [2] (setting [7]), in experiment [3] (setting [8]) and in experiment [4] (setting [9]) were 1.41 mg/kg, more than 40 mg/kg and 0.14 mg/kg, respectively. Besides, in experiment [3], the subcutaneous analgesic activity result is on record as “weak subcutaneous analgesic activity”.
Turning to `CCC[C@]12CCN(CC3CC3)[C@H](Cc3ccc(O)cc31)[C@@]2(C)O` (relative stereo) [dl-XVIe, 2',9β-Dihydroxy-2-cyclopropylmethyl-5-propyl-9α-methyl-6,7benzomorphan], the ED50 was 0.08 mg/kg in experiment [5] (setting [10]); 0.11 mg/kg in experiment [2] (setting [7]); more than 40 mg/kg in experiment [3] (setting [8]); 6 mg/kg in experiment [4] (setting [11]); 0.03 mg/kg in experiment [4] (setting [9]). In addition, in experiment [1], the parenteral antagonist activity entry is given as “relatively potent parenteral antagonists”. Also, the subcutaneous analgesic activity result in experiment [3] was “weak subcutaneous analgesic activity”.
`C[C@H]1[C@H]2Cc3ccc(O)cc3[C@]1(C)CCN2CC1CC1` [Cyclazocine]: the ED50 in experiment [5] (setting [12]) amounted to 2.7 mg/kg; in experiment [5] (setting [10]) it was 0.12 mg/kg; in experiment [2] (setting [6]), 24 mg/kg; in experiment [2] (setting [7]) it was 0.81 mg/kg; in experiment [3] (setting [13]), 4 mg/kg; in experiment [3] (setting [8]), 0.047 mg/kg. Further, the ED50 amounted to 3.7 mg/kg in experiment [4] (setting [11]) and 0.04 mg/kg in experiment [4] (setting [9]).
Turning to `C=CCN1CC[C@]23CCCC[C@H]2[C@H]1Cc1ccc(O)cc13` [Levallorphan], the ED50 in experiment [5] (setting [12]) was determined as 5.4 mg/kg; in experiment [5] (setting [10]), 0.32 mg/kg; in experiment [2] (setting [6]), 46 mg/kg; in experiment [2] (setting [7]), 0.29 mg/kg; in experiment [4] (setting [11]) it was 12.6 mg/kg; in experiment [4] (setting [9]) it was 0.086 mg/kg.
With `C=CCN1CC[C@]23c4c5ccc(O)c4O[C@H]2[C@@H](O)C=C[C@H]3[C@H]1C5` [Nalorphine], the ED50 was 5.4 mg/kg in experiment [5] (setting [12]); 0.58 mg/kg in experiment [5] (setting [10]); more than 64 mg/kg in experiment [2] (setting [6]); 15 mg/kg in experiment [3] (setting [13]); 0.77 mg/kg in experiment [3] (setting [8]); 22.1 mg/kg in experiment [4] (setting [11]). The 50% effective dose (ED50) in experiment [4] (setting [9]) amounted to 0.38 mg/kg.
As for `C=CCN1CC[C@]23c4c5ccc(O)c4O[C@H]2C(=O)CC[C@@]3(O)[C@H]1C5` [Naloxone], the ED50 in experiment [5] (po, read-out: ED50, Antagonist Activity, Oxymorphone Narcosis, PO) stood at 0.95 mg/kg; in experiment [5] (sc, read-out: ED50, Antagonist Activity, Oxymorphone Narcosis, SC), 0.02 mg/kg; in experiment [2] (setting [6]) it was 13.1 mg/kg; in experiment [2] (setting [7]), 0.17 mg/kg; in experiment [3] (setting [8]) it was 40 mg/kg; in experiment [4] (po, read-out: ED50, Antagonist Activity, Morphine Antagonism Rat Tail Flick, PO), 2.7 mg/kg. Also, the ED50 in experiment [4] (sc, read-out: ED50, Antagonist Activity, Morphine Antagonism Rat Tail Flick, SC) stood at 0.01 mg/kg.
Take `CC(C)=CCN1CCC2(C)c3cc(O)ccc3CC1C2C` (stereo not drawn) [Pentazocine]: the ED50 came to 90 mg/kg in experiment [5] (setting [12]); 187 mg/kg in experiment [2] (setting [6]); 12 mg/kg in experiment [2] (setting [7]); 36 mg/kg in experiment [3] (setting [13]); 4.9 mg/kg in experiment [3] (setting [8]); 82.2 mg/kg in experiment [4] (setting [11]).
`C=CCC12CCN(CC3CCC3)C(Cc3ccc(O)cc31)C2(C)O.O=C(O)C(O)C(O)C(=O)O` (stereo not drawn) [d-XVIc, d-2',9β-Dihydroxy-9α-methyl-5-allyl-2-cyclobutylmethyl-6,7-benzomorphan tartrate]: in experiment [2] (SC), the “ED50, Antagonist Activity, Oxymorphone Straub Tail, SC” value (from here on “ED50 … Oxymorphone Straub Tail, SC”) is ~ 40 mg./kg. In addition, in experiment [3] (setting [14]), the “ED50, Agonist Activity, Mouse Phenylquinone Writhing, SC” value (shortened to “ED50, Agonist Activity … SC”) was more than 40 mg/kg.
In the case of “l-2', 9β-Dihydroxy-9α-methyl-5-propyl-2-cyclobutyl-6,7 -benzomorphan HCl [l-XVIr]”, the “ED50 … Oxymorphone Straub Tail, SC” value in experiment [2] (SC) worked out at 1.17 mg/kg. Moreover, in experiment [3] (setting [14]), the “ED50, Agonist Activity … SC” value is 0.18 mg/kg. Besides, in experiment [4] (SC, morphine 15 mg./kg. sc., as free base), the “ED50, Antagonist Activity, Morphine Antagonism Rat Tail Flick, SC” value came to 0.10 mg/kg.
For “l- 2',9β-Dihydroxy-9α-methyl-5-allyl-2-cyclobutyl-6,7 -benzomorphan tartrate [l-XVIc]”, the “ED50, Antagonist Activity, Oxymorphone Narcosis, SC” value in experiment [5] (rat, in vivo, sc) stood at 0.05 mg/kg. The “agonist and antagonist activity upon parenteral administration” value in experiment [1] was “potent agonist and antagonist activity”. Further, the “ED50 … Oxymorphone Straub Tail, SC” value in experiment [2] (SC) was 0.43 mg/kg. Moreover, the “ED50, Agonist Activity, Mouse Phenylquinone Writhing, PO” value in experiment [3] (PO, 50 percent reduction in number of writhings, as free base) stood at 8 mg/kg. Besides, the “ED50, Agonist Activity … SC” value in experiment [3] (setting [14]) turned out to be 0.055 mg/kg. Moreover, the “ED50, Antagonist Activity, Morphine Antagonism Rat Tail Flick, PO” value in experiment [4] (rat, in vivo, po) stood at 14.1 mg/kg. For the same compound, in experiment [4] (rat, in vivo, sc), the “ED50, Antagonist Activity, Morphine Antagonism Rat Tail Flick, SC” value stood at 0.08 mg/kg.
